{"source": "ChEMBL document CHEMBL1140826", "about": "“Synthesis of benzamide derivatives as TRPV1 antagonists” (Bioorg Med Chem Lett, 2008)", "note": "“And” between values parts separate entries of the source, which are not always exact repeats. Identical values can stand only once.", "data": [{"biological_target": "Transient receptor potential cation channel subfamily V member 1 (Homo sapiens, UniProt Q8NER1)", "sequence (Q8NER1 whole entry)": "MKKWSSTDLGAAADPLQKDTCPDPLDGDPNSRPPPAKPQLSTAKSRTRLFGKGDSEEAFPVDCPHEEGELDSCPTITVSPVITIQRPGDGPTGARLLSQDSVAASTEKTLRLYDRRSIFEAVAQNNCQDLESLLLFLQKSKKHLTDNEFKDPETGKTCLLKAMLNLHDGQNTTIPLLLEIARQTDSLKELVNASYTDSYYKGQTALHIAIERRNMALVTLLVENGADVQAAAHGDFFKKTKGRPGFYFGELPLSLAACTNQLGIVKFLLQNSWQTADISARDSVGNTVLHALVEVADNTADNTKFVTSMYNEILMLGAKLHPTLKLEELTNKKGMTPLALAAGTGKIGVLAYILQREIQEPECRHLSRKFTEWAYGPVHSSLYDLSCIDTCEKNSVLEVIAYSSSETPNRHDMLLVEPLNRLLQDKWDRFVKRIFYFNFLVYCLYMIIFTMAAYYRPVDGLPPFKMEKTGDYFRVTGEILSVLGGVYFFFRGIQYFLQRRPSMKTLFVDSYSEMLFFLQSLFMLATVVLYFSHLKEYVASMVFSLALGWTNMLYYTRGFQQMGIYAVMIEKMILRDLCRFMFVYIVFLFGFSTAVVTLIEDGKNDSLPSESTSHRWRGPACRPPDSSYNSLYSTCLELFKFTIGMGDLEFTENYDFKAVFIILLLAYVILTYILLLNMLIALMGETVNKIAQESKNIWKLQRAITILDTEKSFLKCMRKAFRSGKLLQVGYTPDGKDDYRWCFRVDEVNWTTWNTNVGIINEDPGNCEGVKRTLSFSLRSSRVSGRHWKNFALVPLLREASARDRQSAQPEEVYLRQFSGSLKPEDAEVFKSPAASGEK", "experiment": "Antagonist activity at human TRPV1 assessed as inhibition of capsaicin-induced calcium influx in HEK293 cells", "format": "functional, cell-based", "values": [{"smiles": "CC(C)(C)c1ccc(-n2nnc(-c3ccc(C(F)(F)F)cc3)n2)cc1", "IC50": "> 10000 nM"}, {"smiles": "CC(C)(C)c1ccc(NC(=O)c2ccc(SC(F)(F)F)cc2)cc1", "IC50": "253 nM"}, {"smiles": "CC(CNC(=O)c1ccc(OC(F)(F)F)cc1)c1c[nH]c2ccc(O)cc12", "note": "(centres undefined)", "IC50": "550 nM"}, {"smiles": "O=C(NCCc1cccc2ccncc12)c1ccc(OC(F)(F)F)cc1", "IC50": "6700 nM"}, {"smiles": "CS(=O)(=O)c1ccc(C(=O)Nc2ccc(I)cc2)cc1", "IC50": "> 10000 nM"}, {"smiles": "CC(C)(C)c1ccc(CC(=O)c2ccc(C(F)(F)F)cc2)cc1", "IC50": "> 10000 nM"}, {"smiles": "O=C(NCCc1ccccc1F)c1ccc(OC(F)(F)F)cc1", "IC50": "3490 nM"}, {"smiles": "COc1ccc2cccc(CCNC(=O)c3ccc(OC(F)(F)F)cc3)c2c1", "IC50": "1400 nM"}, {"smiles": "COc1ccc2[nH]cc(CCNC(=O)c3ccc(Oc4ccccc4)cc3)c2c1", "IC50": "1890 nM"}, {"smiles": "O=C(NCCc1ccc(Cl)c(Cl)c1)c1ccc(OC(F)(F)F)cc1", "IC50": "3700 nM"}, {"smiles": "FC(F)C(F)(F)Oc1ccc(-c2nc3cc(Br)ccc3[nH]2)cc1", "IC50": "380 nM"}, {"smiles": "COc1ccc2[nH]cc(CCNC(=O)c3ccc(OCCN(C)C)cc3)c2c1", "IC50": "> 10000 nM"}, {"smiles": "O=C(NCCc1cccc2ccccc12)c1ccc(OC(F)(F)F)cc1", "IC50": "2600 nM"}, {"smiles": "O=C(NCCN1CCCc2ccccc21)c1ccc(OC(F)(F)F)cc1", "IC50": "4600 nM"}, {"smiles": "O=C(Nc1ccc(I)cc1)c1ccc(C(F)(F)F)cc1", "IC50": "330 nM"}, {"smiles": "COc1ccc2[nH]cc(CCNC(=O)c3ccc(C4CCCCC4)cc3)c2c1", "IC50": "1160 nM"}, {"smiles": "COc1ccc2[nH]cc(CCNC(=O)c3ccc(C(F)(F)F)cc3)c2c1", "IC50": "2090 nM"}, {"smiles": "CC(C)(C)c1ccc2[nH]cc(CCNC(=O)c3ccc(OC(F)(F)F)cc3)c2c1", "IC50": "> 10000 nM"}, {"smiles": "O=C(Nc1ccc(C(F)(F)F)cc1)c1ccc(I)cc1", "IC50": "> 10000 nM"}, {"smiles": "COc1ccc2c(c1)c1c(n2C)CCCC1CNC(=O)c1ccc(OC(F)(F)F)cc1", "note": "(centres undefined)", "IC50": "490 nM"}, {"smiles": "CC(C)(C)c1ccc(C(N)C(=O)c2ccc(OC(F)(F)F)cc2)cc1", "note": "(centres undefined)", "IC50": "> 10000 nM"}, {"smiles": "COc1ccc2nccc(CCNC(=O)c3ccc(OC(F)(F)F)cc3)c2c1", "IC50": "> 10000 nM"}, {"smiles": "CC(C)(C)c1cc(NC(=O)c2ccc(OC(F)(F)F)cc2)cc(C(C)(C)C)c1", "IC50": "> 10000 nM"}, {"smiles": "Cc1[nH]c2ccc(O)cc2c1C(C)CNC(=O)c1ccc(OC(F)(F)F)cc1", "note": "(centres undefined)", "IC50": "3280 nM"}, {"smiles": "CC(C)(C)c1ccc(-c2cc3cc(C(C)(C)C)ccc3[nH]2)cc1", "IC50": "> 10000 nM"}, {"smiles": "COc1ccc2c(c1)C(CCNC(=O)c1ccc(OC(F)(F)F)cc1)CCC2", "note": "(centres undefined)", "IC50": "4650 nM"}, {"smiles": "CC(C)(C)c1ccc(/C=C(\\C#N)c2ccc(C(F)(F)F)cc2)cc1", "IC50": "> 10000 nM"}, {"smiles": "O=C(NCCc1c[nH]c2ccccc12)c1ccc(OC(F)(F)F)cc1", "IC50": "7350 nM"}, {"smiles": "O=C(NCCc1ccccc1Cl)c1ccc(OC(F)(F)F)cc1", "IC50": "776 nM"}, {"smiles": "O=C(NCCc1c(Cl)cccc1Cl)c1ccc(OC(F)(F)F)cc1", "IC50": "205 nM"}, {"smiles": "CN(C(=O)c1ccc(OC(F)(F)F)cc1)c1ccc(C(C)(C)C)cc1", "IC50": "> 10000 nM"}, {"smiles": "CC(C)(C)c1ccc2[nH]c(-c3ccc(OC(F)(F)C(F)F)cc3)nc2c1", "IC50": "477 nM"}, {"smiles": "COc1ccc2ccn(CCNC(=O)c3ccc(OC(F)(F)F)cc3)c2c1", "IC50": "3550 nM"}, {"smiles": "O=C(NCCc1ccc(O)c2ccc(O)cc12)c1ccc(OC(F)(F)F)cc1", "IC50": "76 nM"}, {"smiles": "O=C(NCCC1CCCc2ccc(O)cc21)c1ccc(OC(F)(F)F)cc1", "note": "(centres undefined)", "IC50": "1350 nM"}, {"smiles": "COc1ccc2[nH]cc(CCNC(=O)c3ccc(OCC(F)(F)F)nc3)c2c1", "IC50": "3400 nM"}, {"smiles": "COc1ccc2cccc(CC(C)NC(=O)c3ccc(OC(F)(F)F)cc3)c2c1", "note": "(centres undefined)", "IC50": "3100 nM"}, {"smiles": "O=C(Nc1ccc(C(F)(F)F)cc1)c1ccc(OC(F)(F)F)cc1", "IC50": "220 nM"}, {"smiles": "O=C(Nc1ccc2c(c1)CCC2)c1ccc(OC(F)(F)F)cc1", "IC50": "210 nM"}, {"smiles": "CC(CNC(=O)c1ccc(OC(F)(F)F)cc1)c1ccc(O)c2ccc(O)cc12", "note": "(racemic)", "IC50": "14 nM"}, {"smiles": "O=C(NCCc1cccc(Cl)c1)c1ccc(OC(F)(F)F)cc1", "IC50": "> 10000 nM and 1930 nM"}, {"smiles": "O=C(Nc1ccc(I)cc1)Nc1ccc(C(F)(F)F)cc1", "IC50": "> 10000 nM"}, {"smiles": "O=C(NCCc1ccnc2ccc(O)cc12)c1ccc(OC(F)(F)F)cc1", "IC50": "1230 nM"}]}, {"biological_target": "Transient receptor potential cation channel subfamily V member 1 (Rattus norvegicus, UniProt O35433)", "sequence (O35433 whole entry)": "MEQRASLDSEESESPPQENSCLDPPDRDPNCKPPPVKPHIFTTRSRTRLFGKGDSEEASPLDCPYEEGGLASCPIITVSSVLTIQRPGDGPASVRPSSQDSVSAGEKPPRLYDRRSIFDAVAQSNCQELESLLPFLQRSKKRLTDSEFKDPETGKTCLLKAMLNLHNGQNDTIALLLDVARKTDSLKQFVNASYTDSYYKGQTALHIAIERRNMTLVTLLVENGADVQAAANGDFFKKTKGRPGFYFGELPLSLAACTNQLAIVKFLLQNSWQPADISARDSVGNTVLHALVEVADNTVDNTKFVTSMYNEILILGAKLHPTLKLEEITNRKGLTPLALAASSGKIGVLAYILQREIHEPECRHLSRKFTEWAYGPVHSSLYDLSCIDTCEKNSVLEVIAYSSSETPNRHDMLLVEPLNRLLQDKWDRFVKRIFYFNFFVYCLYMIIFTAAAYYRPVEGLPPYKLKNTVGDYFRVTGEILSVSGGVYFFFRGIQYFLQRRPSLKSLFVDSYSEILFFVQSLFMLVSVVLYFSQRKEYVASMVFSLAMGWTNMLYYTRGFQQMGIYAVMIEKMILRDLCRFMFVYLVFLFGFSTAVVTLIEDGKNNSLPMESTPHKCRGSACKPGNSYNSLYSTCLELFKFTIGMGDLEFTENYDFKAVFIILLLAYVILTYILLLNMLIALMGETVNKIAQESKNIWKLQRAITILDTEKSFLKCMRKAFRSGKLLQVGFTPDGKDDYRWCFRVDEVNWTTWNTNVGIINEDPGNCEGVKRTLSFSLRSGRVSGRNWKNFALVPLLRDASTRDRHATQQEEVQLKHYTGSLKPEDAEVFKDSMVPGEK", "experiment": "Antagonist activity at rat TRPV1 assessed as inhibition of capsaicin-induced calcium mobilization", "format": "functional", "units": {"IC50": "nM"}, "values": [{"smiles": "CC(CNC(=O)c1ccc(OC(F)(F)F)cc1)c1ccc(O)c2ccc(O)cc12", "note": "(racemic)", "IC50": 44}]}]}
